# Patent US7291337B2, “Peptide having an affinity for gp120” (Aspion Co., Ltd., priority 2000, dated 2007)
# Tests used:
# gp120 = gp120 (Human immunodeficiency virus type 1 group M subtype B, UniProt P03375); conditions: peptide conjugated latex beads; for Agglutinin test, Colloidal gold conjugated gp120: protein contents 1 μg/ml; for Agglutinin test, gp120 protein: unlabelled gp120, contents 1 μg/ml
# [1] = system: serum of hepatitis C or B patients, laboratory strain and freshly isolated strain, virus lysate conjugated colloidal gold; experiment: Specificity test with peptide conjugated latex beads against viruses (Table 17); format: binding
# Excerpt: The virus that was in use in this enforcement example was serum, laboratory strain and a freshly isolated strain that was gathered from patients of hepatitis C or B at final stage. Then, we used virus lysate that conjugated colloidal gold as previously.
# [2] = target: HIV-1 kk-1 (virus; gp120 on it) (HIV-1 kk-1); experiment: column absorption of KK-1 virus in human serum; p24 antigen ELISA
# [3] = target: HIV-1 kk-1 (virus; gp120 on it) (HIV-1 kk-1); experiment: column absorption of KK-1 virus in human serum; p24 antigen ELISA of lysed bound virus (starting material 2,350)
# [4] = system: HTLV-IIIB (laboratory strain); experiment: Investigation of neutralizing activity of HIV-1 (CPE in MT-4 cells), HTLV-IIIB; format: cell-based; conditions: content to inhibit infection (CPE), 6 days, NE = no effect
# Excerpt: (§1) Then, we used AZT as a positive control.
# [5] = system: KK-1 (freshly isolated HIV); experiment: Investigation of neutralizing activity of HIV-1 (CPE in MT-4 cells), KK-1; format: cell-based; conditions: content to inhibit infection (CPE), 6 days, NE = no effect
# Excerpt: as §1
# [6] = target: HIV-1-gp120 (Immuno Diagnosis Co.), horseradish peroxidase labeled and enzyme unlabeled (HIV-1); experiment: Scatchard plot; HRP-labeled and unlabeled gp120 added to peptide carrier
# [7] = Sample/Virus No. 1: HIV-1 IIIB, 1.0 × 10^5 TCID50
# [8] = Sample/Virus No. 2: HIV-1 Lav 1, 1.0 × 10^5 TCID50
# [9] = Sample/Virus No. 3: HIV-1 kk-1, 1.0 × 10^4.5 TCID50
# [10] = Sample/Virus No. 4: HIV-2 Lav2, 1.0 × 10^6 TCID50
# [11] = Sample/Virus No. 5: Serum of HCV patients, titer indistinct
# [12] = Sample/Virus No. 6: Serum of HBV patients, titer indistinct
# [13] = Sample/Virus No. 7: Hepatitis B surface antigen(HbsAg), 1.6 × 10^5 units
# [14] = Sample/Virus No. 8: Valaricella Zoster valirus, 9.5 × 10^5 units
# [15] = Sample/Virus No. 9: Argubella Zoster valirus (VZV), 4.9 × 10^5 units
# [16] = Sample/Virus No. 10: HTLV-1 virul lysate, 1.1 × 10^5 units
# [17] = Sample/Virus No. 11: human cytomegalovirus (HCMV), 5.5 × 10^5 units
# [18] = Sample/Virus No. 12: Epstein-Barr virus(EB virus), 9.9 × 10^5 units
substance,measurement,setting,value
Trp-Trp-Lys-Ala-Ala [No. 6 in Table 3],"Agglutinin test, Colloidal gold conjugated gp120",gp120,Presence
same,"Agglutinin test, gp120 protein",gp120,Absence
Table 3 No. 6 (WWKAA),Presence of agglutinin,[1]; [7],+
same,Presence of agglutinin,[1]; [8],+
same,Presence of agglutinin,[1]; [9],+
same,Presence of agglutinin,[1]; [10],−
same,Presence of agglutinin,[1]; [11],−
same,Presence of agglutinin,[1]; [12],−
same,Presence of agglutinin,[1]; [13],−
same,Presence of agglutinin,[1]; [14],−
same,Presence of agglutinin,[1]; [15],−
same,Presence of agglutinin,[1]; [16],−
same,Presence of agglutinin,[1]; [17],−
same,Presence of agglutinin,[1]; [18],−
Asp-Val-Lys-Ala-Gly [No. 1 in Table 1],"Agglutinin test, Colloidal gold conjugated gp120",gp120,Presence
same,"Agglutinin test, gp120 protein",gp120,Absence
No. 12 peptide of Table 3 (Tyr-Tyr-Lys-Ala-Ala) bound to cellulose type carrier,percent of supplied virus absorbed,[2],< 10%
same,"p24(S/CO), fraction of column absorption",[3],205 S/CO
Table 1 No. 1 (DVKAG),Presence of agglutinin,[1]; [7],+
same,Presence of agglutinin,[1]; [8],+
same,Presence of agglutinin,[1]; [9],+
same,Presence of agglutinin,[1]; [10],−
same,Presence of agglutinin,[1]; [11],−
same,Presence of agglutinin,[1]; [12],−
same,Presence of agglutinin,[1]; [13],−
same,Presence of agglutinin,[1]; [14],−
same,Presence of agglutinin,[1]; [15],−
same,Presence of agglutinin,[1]; [16],−
same,Presence of agglutinin,[1]; [17],−
same,Presence of agglutinin,[1]; [18],−
Phe-Arg-Lys-Ala-Ala (FRKAA; printed: Phe-Arg-Lys-Ala-Ala) [No. 8 in Table 3],Anti-HIV neutralizing activity (μg/ml) HTLV-IIIB,[4],125 µg/mL
same,Anti-HIV neutralizing activity (μg/ml) KK-1,[5],125 µg/mL
No. 12 peptide of Table 3 (Tyr-Tyr-Lys-Ala-Ala) bound to Sephadex 4B,Kd,[6],0.497 nM
No. 1 peptide of Table 1 (Asp-Val-Lys-Ala-Gly) bound to Sephadex 6MB,Kd,[6],0.214 nM
